Holding throughout (test): DTP human tumour cell line panel, 48 h
The subject of assay [1] is OVCAR-3 ovarian.
Assay [2] relates to MALME-3M melanoma.
Assay [3] relates to OVCAR-8 ovarian.
Assay [4] concerns NCI-H226 lung.
Assay [5] has as its system SF-268 CNS.
Assay [6] has as its system SK-MEL-2 melanoma.
Assay [7] relates to KM12 colon.
Assay [8] concerns UACC-257 melanoma.
The subject of assay [9] is HS 578T breast.
Assay [10] has as its system COLO 205 colon.

Values joined by “and” are separate entries in the source; they are usually repeats but may differ in a detail not shown here. Equal values may be shown once.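 Compound exposure: 48 hours, 5 concentrations, 96-well plates. GI50: concentration for 50% inhibition of growth. At the TGI there is no net growth.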 Where a SMILES comes first, the peptide text is derived from it. [ ]: non-standard residue; d: D form. ξ: configuration not given here. Pentanoyl(2-O,4-OH,5-Cl) = O=C(O)C(O)CC(O)CCl; Ile(3ξ) = CCC(C)[C@H](N)C(=O)O; NMeV = CN[C@H](C(=O)O)C(C)C; NMeA = CN[C@@H](C)C(=O)O; βAla = NCCC(=O)O

A word on the TGI: it is the concentration giving total growth inhibition. A high value points to less potent growth arrest. Take `CCC(C)[C@@H]1NC(=O)[C@@H]2CCCN2C(=O)C(CC(O)CCl)OC(=O)CCNC(=O)[C@H](C)N(C)C(=O)[C@H](C(C)C)N(C)C1=O` (some centres undefined) (cyclo([Ile(3ξ)][NMeV][NMeA][βAla][Pentanoyl(2-O,4-OH,5-Cl)]P)): the concentration for total growth inhibition (TGI) in assay [1] was more than 100 µM; in assay [2], more than 100 µM; in [3] it was more than 100 µM; in [4] it was more than 100 µM; in assay [5] it was more than 100 µM; in assay [6], 1.89 µM. Also, the concentration for total growth inhibition (TGI) is more than 100 µM in [7], more than 86 µM in [8], more than 100 µM in assay [9] and more than 31.6 µM in assay [10].

One may read the GI50 as the concentration giving 50% growth inhibition. Consider `CN1CCN(c2ccc3nc(-c4[nH]ncc4Nc4ncnc5[nH]ccc45)[nH]c3c2)CC1`, for which the GI50 in [1] is 0.233 µM; in assay [2], 0.379 µM; in assay [3], 0.381 µM; in assay [4], 0.212 µM; in [5], 0.25 µM; in [6], 0.39 µM. Further, the GI50 in assay [7] is 0.517 µM; in [8] it was 0.571 µM; in assay [9] it was 0.216 µM; in [10], 0.147 µM. The TGI in [1] was 0.759 µM; in [2] it was 2.64 µM; in assay [3], more than 31.1 µM; in assay [4], 1.01 µM; in [5] it was 0.803 µM; in assay [6] it was 1.91 µM. Moreover, the total growth inhibition concentration (TGI) stood at 11.6 µM in [7], 20.4 µM in [8], 2.03 µM in assay [9] and 0.695 µM in assay [10].

`CCOc1ccc2nc3cc(N)ccc3c(N)c2c1`: the GI50 in [1] was 2 µM and 1.91 µM; in assay [2], 1.22 µM and 1.54 µM; in assay [3] it was 2.68 µM and 2.55 µM; in [4], 6.49 µM and 2.55 µM; in [5], 0.385 µM and 0.324 µM; in assay [6], 2.36 µM and 2.22 µM. Also, the GI50 in assay [7] is 2.73 µM and 1.06 µM; in assay [8], 11 µM and 5.67 µM; in assay [9], 1.29 µM and 1.03 µM; in [10] it was 3 µM and 1.25 µM. The TGI in assay [1] is 7.25 µM and 10.5 µM; in assay [2] it was 3.23 µM and 3.95 µM; in [3], 15.8 µM and 13.1 µM; in [4], 24.2 µM and 13.4 µM; in [5], 1.79 µM and 1.68 µM; in [6], 6.19 µM and 5.86 µM. Besides, the TGI in assay [7] was 17.1 µM and 12.9 µM; in [8] it was 28.6 µM and 21 µM; in assay [9] it was 9.46 µM and 4.83 µM; in assay [10], 13.4 µM and 4.69 µM.

Consider `CCOC(=O)c1sc2nc(=S)[nH]c(NC(N)=S)c2c1C`, for which the GI50 in [1] is 26.4 µM; in assay [2] it was 37 µM; in [3], 25.4 µM; in assay [5], 17.8 µM; in [6], 46.7 µM; in assay [7], 23.5 µM. Also, the values for the GI50 in assay [8], in assay [9] and in assay [10] were 24.6 µM, 26 µM and 18.6 µM, respectively. Further, the concentration for total growth inhibition (TGI) in assay [1] is 56.2 µM; in assay [2] it was 72.1 µM; in assay [3] it was 63.3 µM; in assay [4] it was 21.1 µM; in [5] it was 42.7 µM; in assay [6] it was more than 100 µM. Besides, the concentration for total growth inhibition (TGI) in assay [7] worked out at 52.7 µM; in assay [8] it was 47.3 µM; in [9], 59.7 µM; in assay [10], 48.4 µM.

For `Oc1ccc(CCNc2nc3ccccc3c3[nH]c4ccccc4c23)cc1O`, the GI50 in assay [1] is 1.77 µM; in assay [2], 2.23 µM; in assay [3], 1.9 µM; in [4], 11 µM; in [5], 5.7 µM; in assay [6], 1.73 µM. Also, the GI50 was 1.59 µM in assay [7], 25.5 µM in assay [8], 8.28 µM in assay [9] and 2.27 µM in [10]. The TGI in [1] turned out to be 3.7 µM; in [2], 6.28 µM; in assay [3], 3.85 µM; in assay [4] it was 24.3 µM; in assay [5], 30.1 µM; in assay [6] it was 3.59 µM. Besides, the TGI is 4.19 µM in assay [7], 40.2 µM in [8], more than 100 µM in assay [9] and 6.8 µM in [10].

On to `CN(C)CCN1C(=O)c2cccc3cc(N)cc(c23)C1=O`, for which the GI50 was 4.98 µM in assay [1]; 2.41 µM in assay [2]; 2.46 µM in assay [3]; 1.51 µM in assay [4]; 3.83 µM in assay [5]; 3.73 µM in [6]. Further, the GI50 in assay [7] was 3.32 µM; in assay [8] it was 2.55 µM; in assay [9], 10.4 µM; in assay [10], 2.23 µM. Moreover, the total growth inhibition concentration (TGI) was 25.9 µM and 26.4 µM in assay [1]; 9.85 µM and 8.29 µM in assay [2]; 30.5 µM and 7.38 µM in [3]; 5.34 µM and 8.51 µM in assay [4]; 25.6 µM and 28.9 µM in assay [5]; 13 µM and 9.4 µM in assay [6]. The TGI in [7] was 26.5 µM and 25.5 µM; in assay [8] it was 9.51 µM and 12.8 µM; in assay [9], 50.9 µM and 21.2 µM; in assay [10], 14.7 µM and 7.19 µM.

With `CCOc1cc(/C=C/C(=O)CC(=O)/C=C/c2ccc(OC(=O)CNc3nc4ccc(OC)cc4s3)c(OCC)c2)ccc1OC(=O)CNc1nc2ccc(OC)cc2s1`, the GI50 in assay [1] is 4.45 µM; in [2] it was 12.3 µM; in [3] it was 2.5 µM; in [4], 12.9 µM; in [5], 3.12 µM; in assay [6], 4.94 µM. The GI50 is 2.96 µM in assay [7], 5.53 µM in assay [8], 3.16 µM in assay [9] and 14 µM in [10]. Further, the TGI in assay [1] was found to be 29 µM; in [2] it was 27.3 µM; in [3], 6.32 µM; in assay [4], 34.1 µM; in assay [5] it was 25.8 µM; in [6] it was 29.1 µM. Besides, the TGI in [7] was found to be 12.1 µM; in assay [8], 21.1 µM; in assay [9], 23.9 µM; in assay [10], 29.3 µM.
